According to the supplement of paper PMC10307832:

What was measured:
Test in all cases: relative viability (nuclei count vs DMSO), 5 days (fraction); higher = more cells survive
Adavosertib + Foretinib = compound: C=CCn1c(=O)c2cnc(Nc3ccc(N4CCN(C)CC4)cc3)nc2n1-c1cccc(C(C)(C)O)n1 [Adavosertib] + COc1cc2c(Oc3ccc(NC(=O)C4(C(=O)Nc5ccc(F)cc5)CC4)cc3F)ccnc2cc1OCCCN1CCOCC1 [Foretinib] (partner 0.25 µM)
How it was run: (§1)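 Relative viability divides the nuclei count in treated wells by that in vehicle wells. Lung cancer cell lines were seeded in 1536-well plates, dosed by pin tool the next day, and fixed and stained after 5 days in one step with final 0.05% Triton X-100, 1% formaldehyde and 1 ug/ml Hoechst. Dosing was a single drug or a fixed anchor-drug dose plus five library-drug doses (not always all listed) in √10 steps, and values are medians of duplicate plates imaged at 4×.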

Nelarabine + OSI-027 = compound: COc1nc(N)nc2c1ncn2[C@@H]1O[C@H](CO)[C@@H](O)[C@@H]1O [Nelarabine] + COc1cccc2cc(-c3nc([C@H]4CC[C@H](C(=O)O)CC4)n4ncnc(N)c34)[nH]c12 [OSI-027] (partner 0.5 µM)
How it was run: as §1

Nelarabine + Lapatinib = compound: COc1nc(N)nc2c1ncn2[C@@H]1O[C@H](CO)[C@@H](O)[C@@H]1O [Nelarabine] + CS(=O)(=O)CCNCc1ccc(-c2ccc3ncnc(Nc4ccc(OCc5cccc(F)c5)c(Cl)c4)c3c2)o1 [Lapatinib] (partner 2 µM)
How it was run: as §1

Nelarabine + Pemetrexed = compound: COc1nc(N)nc2c1ncn2[C@@H]1O[C@H](CO)[C@@H](O)[C@@H]1O [Nelarabine] + Nc1nc2[nH]cc(CCc3ccc(C(=O)N[C@@H](CCC(=O)O)C(=O)O)cc3)c2c(=O)[nH]1 [Pemetrexed] (partner 0.2 µM)
How it was run: as §1

| Cell Line | relative viability (Adavosertib + Foretinib; first compound 0.01 µM) | relative viability (Adavosertib + Foretinib; first compound 0.03162 µM) | relative viability (Adavosertib + Foretinib; first compound 0.1 µM) | relative viability (Adavosertib + Foretinib; first compound 0.3162 µM) | relative viability (Nelarabine + OSI-027; first compound 0.01 µM) | relative viability (Nelarabine + OSI-027; first compound 0.03162 µM) | relative viability (Nelarabine + OSI-027; first compound 0.1 µM) | relative viability (Nelarabine + OSI-027; first compound 0.3162 µM) | relative viability (Nelarabine + OSI-027; first compound 1 µM) | relative viability (Nelarabine + Lapatinib; first compound 0.01 µM) | relative viability (Nelarabine + Lapatinib; first compound 0.03162 µM) | relative viability (Nelarabine + Lapatinib; first compound 0.1 µM) | relative viability (Nelarabine + Lapatinib; first compound 0.3162 µM) | relative viability (Nelarabine + Lapatinib; first compound 1 µM) | relative viability (Nelarabine + Pemetrexed; first compound 0.01 µM) | relative viability (Nelarabine + Pemetrexed; first compound 0.03162 µM) | relative viability (Nelarabine + Pemetrexed; first compound 0.1 µM) | relative viability (Nelarabine + Pemetrexed; first compound 0.3162 µM) | relative viability (Nelarabine + Pemetrexed; first compound 1 µM) |
| --- | --- | --- | --- | --- | --- | --- | --- | --- | --- | --- | --- | --- | --- | --- | --- | --- | --- | --- | --- |
| NCI-H1993 | 0.795 | 0.863 | 0.83 | 0.838 | 0.596 | 0.502 | 0.551 | 0.567 | 0.585 | 0.836 | 0.774 | 0.81 | 0.67 | 0.785 | 0.632 | 0.477 | 0.598 | 0.64 | 0.67 |
| NCI-H358 | 0.764 | 0.682 | 0.592 | 0.285 | 1 | 0.816 | 0.767 | 1.09 | 0.989 | 0.518 | 0.436 | 0.421 | 0.405 | 0.431 | 0.181 | 0.227 | 0.161 | 0.172 | 0.328 |
| PC-14 | 0.934 | 0.957 | 0.933 | 0.636 | 1.41 | 0.97 | 0.936 | 1.22 | 1.05 | 0.327 | 0.342 | 0.307 | 0.328 | 0.353 | 0.136 | 0.138 | 0.125 | 0.142 | 0.158 |
| NCI-H520 | 0.784 | 0.81 | 0.743 | 0.703 | 0.321 | 0.233 | 0.233 | 0.395 | 0.264 | 0.991 | 0.947 | 1.31 | 0.889 | 0.887 | 0.768 | 0.584 | 0.687 | 0.842 | 0.786 |
| NCI-H23 | 1.04 | 0.891 | 0.75 | 0.261 | 0.686 | 0.504 | 0.512 | 0.738 | 0.62 | 1.5 | 1.1 | 1.06 | 1.17 | 1.18 | 1.04 | 0.729 | 0.771 | 0.71 | 0.666 |
| NCI-H322M | 0.886 | 0.978 | 0.821 | 0.517 | 0.575 | 0.544 | 0.431 | 0.516 | 0.612 | 0.653 | 0.581 | 0.529 | 0.604 | 0.602 | 0.601 | 0.565 | 0.631 | 0.653 | 0.61 |
| LC-2-ad | 0.823 | 0.995 | 0.958 | 0.889 | 0.922 | 0.879 | 0.754 | 0.81 | 0.875 | 1.28 | 1.03 | 0.991 | 1.06 | 1.08 | 0.304 | 0.249 | 0.267 | 0.286 | 0.275 |
| LOU-NH91 | 0.875 | 0.945 | 0.943 | 0.88 | 0.738 | 0.785 | 0.657 | 0.765 | 0.748 | 0.817 | 0.633 | 0.692 | 0.775 | 0.788 | 0.385 | 0.35 | 0.442 | 0.329 | 0.381 |
| CAL-12T | 1.12 | 1.09 | 1.16 | 1.09 | 0.616 | 0.874 | 0.687 | 0.635 | 0.583 | 0.699 | 0.743 | 0.611 | 0.685 | 0.688 | 1.55 | 1.19 | 1.42 | 1.2 | 1.22 |
| NCI-H2009 | 1.17 | 1.21 | 1.26 | 1.2 | 0.767 | 0.643 | 0.546 | 0.696 | 0.71 | 1.04 | 1.03 | 0.869 | 1.07 | 1.03 | 1.09 | 1.05 | 1.07 | 1.08 | 1.11 |
| SK-LU-1 | 0.773 | 0.831 | 0.563 | 0.311 | 0.287 | 0.267 | 0.364 | 0.396 | 0.327 | 1.24 | 0.617 | 0.887 | 0.94 | 0.885 | 1.19 | 0.796 | 1.06 | 0.995 | 1.04 |
| NCI-H1793 | 0.633 | 0.599 | 0.644 | 0.508 | 0.327 | 0.238 | 0.247 | 0.372 | 0.326 | 0.827 | 0.945 | 0.83 | 0.933 | 0.727 | 1.04 | – | 1.07 | 0.962 | 0.88 |
| NCI-H3122 | 0.982 | 0.931 | 0.956 | 0.996 | 1.34 | 1.01 | – | 1.11 | 1.03 | 1.08 | 0.891 | – | 1.08 | 1.01 | 0.194 | 0.18 | – | 0.204 | 0.195 |
| NCI-H1437 | 1.2 | 1.35 | 1.27 | 1.25 | 1.04 | 0.859 | 0.845 | 0.948 | 0.796 | 1.06 | 0.83 | 0.815 | 0.839 | 0.79 | 0.344 | 0.359 | 0.301 | 0.39 | 0.323 |
| NCI-H650 | 1.06 | 1.01 | 1.06 | 0.889 | 0.616 | 0.529 | 0.48 | 0.563 | 0.501 | 0.97 | 0.842 | 0.929 | 1.07 | 0.887 | 0.986 | 0.814 | 0.913 | 0.971 | 1.02 |
| HCC-78 | 0.54 | 0.628 | 0.587 | 0.628 | 0.306 | 0.35 | – | 0.385 | 0.372 | 0.731 | 0.779 | – | 0.902 | 0.631 | 0.879 | 0.925 | – | 0.953 | 0.886 |
| A-427 | 0.929 | 1.02 | 1.09 | 0.851 | 0.489 | 0.42 | 0.373 | 0.443 | 0.52 | 1.15 | 0.973 | 1.14 | 1.1 | 1.11 | 1.04 | 1.05 | 1.11 | 0.984 | 0.838 |
